Test [1] addresses α4β1 integrin (Homo sapiens (Human), UniProt P05556+P13612). The test can be described thus: Integrin Adhesion Assay: Protocol 5 (VCAM-coated plate, RPMI-8866 cells with stable LOF mutation of the ITGB7 gene). In kind it is cell-based. On the procedure: (§1) Integrin Adhesion Assay Using Genetically Modified Cells Generating Stable Cell Lines with ITGB1 or ITGB7 Knockout (Protocol 4 and Protocol 5)
(§2) To obtain subclones of the RPMI-8866 cell line (Sigma-Aldrich, St. Louis, MO) that were individually deficient in either integrin β1 or integrin β 7, CRISPR/Cas9 technology was employed (PMID: 30108345). Specifically, a Neon™ Transfection System System 10 μL Kit and the Neon™ Transfection device (both from ThermoFisher Scientific) were used.
(§3) The protocol was performed following the manufacturer instructions, described in https://www.thermofisher.com/document-connect/document-connect.html?url=https % 3A%2F%2F assets.thermofisher.com%2FTFS-Assets%2FLSG%2Fmanuals%2FMAN0017066_TrueCut Cas9_Protein_v2_UG.pdf, which is incorporated by reference herein in its entirety.
(§4) RPMI-8866 cells were transferred to a flask the day before transfection, at a confluence of 5×10^5 cells/mL. The cells were washed with PBS and resuspended in buffer R (Neon™ Transfection System, Invitrogen) to 2×10^5 cells/10 uL for each reaction. The TrueCut™ HiFi Cas9 Protein (1250 ng per reaction) was mixed with TrueGuide™ sgRNA (7.5 pmoles each/pool of 3 sequences, table 1) (ThermoFisher Scientific). This mix was combined with the RPMI-8866 cells and electroporated on the Neon system at 1700V/20 ms/1 pulse. Transfected cells were allowed to recover in 500 μL pre-warmed cRMPI media (RPMI-1640 media with 10% FBS, 100 U/ml Penicillin-Streptomycin) at 37° C., 5% CO2 for 24 hours. At that time, an extra 500 μL of pre-warmed cRMPI media was added, and cells were incubated for another 24 hours.
(§5) For flow cytometry analysis, 100 μL of the transfected cells were collected and stained with anti-itga4 (Clone: 9F10, PE, BD Pharmingen™), anti-itgb 1 (Clone: (TS2/16), Super Bright 436, eBioscience), anti-itgb7 (Clone: FIB504, Brilliant Violet 650, BD Pharmingen™) and viability dye (LIVE/DEAD™ Fixable Green Dead Cell Stain, Invitrogen™). An Attune NxT Flow Cytometer was used to analyze the CRISPR-transfected cells. The flow cytometry results were analyzed using FlowJo™ v10.8.1 Software (BD Life Sciences). Fluorescence minus one (FMO) controls were used to select appropriate gates for data analysis.
(§6) To generate an individual clones of cells deficient in either ITGB7 or ITGB1 by limiting dilution assay, the transfected cells were resuspended at 5 cells/mL and seeded in 384 well plates. Outgrowth of clones was monitored using a microscope, and 24 clones were transferred for expansion. Expression of either integrin was verified by flow cytometry in each of the clones. One clone of each integrin b7 or the integrin b1 knockout was chosen, expanded and aliquots were frozen in vapor phase liquid nitrogen.
Integrin Adhesion Assay: Protocol 5
VCAM (R&D Systems, 0.1 ug) was diluted in 50 μL PBS, added to each well of an opaque ELISA plate (Thermo), and incubated overnight at 4° C. Coated plates were washed once with PBS and then blocked with 200 μL of assay buffer (10 mM HEPES, 150 mM NaCl, 1 mM MnCl2, 0.1 mM CaCl2), 1% BSA) for 1 hour at 37° C. and 5% CO2. After incubation, buffer was aspirated from the plates and 50 μL of fresh assay buffer was added. Compounds were added by compounds dispenser (Tecan) and DMSO concentration was normalized to 1% across each plate. 50 μL of RPMI-8866 cells with a stable LOF mutation of the ITGB7 gene (2×10^6 per mL) were added to each well and the plates were incubated for 1 hour at 37° C. and 5% CO2. After incubation, plates were allowed to cool to RT for 10 minutes before being washed four times in assay buffer by an automated plate washer (BioTek). After washing, 100 μL of a 1:1 mixture of assay buffer and CellTiter GLO 2.0 reagent (Promega) were added to each well. Plates were mixed for 2 minutes at 1000 rpm and then allowed to incubate an additional 10 minutes before reading out luminescence on a Tecan Spark plate reader. […]

The target in test [2] is α4β7 integrin (Homo sapiens (Human), UniProt P13612+P26010). Nature of the test: Integrin Adhesion Assay: Protocol 4 (MAdCAM-coated plate, RPMI-8866 cells with stable LOF mutation of the ITGB1 gene). Type of test: cell-based. On the procedure:
as §1, §2, §3, §4, §5, §6
Integrin Adhesion Assay: Protocol 4
MAdCAM (R&D Systems, 0.1 ug) was diluted in 50 μL PBS, added to each well of an opaque ELISA plate (Thermo), and incubated overnight at 4° C. Coated plates were washed once with PBS and then blocked with 200 μL of assay buffer (10 mM HEPES, 150 mM NaCl, 1 mM MnCl2, 0.1 mM CaCl2), 1% BSA) for 1 hour at 37° C. and 5% CO2. After incubation, buffer was aspirated from the plates and 50 μL of fresh assay buffer was added. Compounds were added using a compounds dispenser (Tecan), and DMSO concentration was normalized to 1% across each plate. 50 μL of RPMI-8866 cells with a stable loss of function (LOF) mutation of the ITGB1 gene (2×10^6 per mL) were added to each well and the plates were incubated for 1 hour at 37° C. at a CO2 concentration of 5%. After incubation, plates were allowed to cool to RT for 10 minutes before being washed four times in assay buffer by an automated plate washer (BioTek). After washing, 100 μL of a 1:1 mixture of assay buffer and CellTiter GLO 2.0 reagent (Promega) were added to each well. Plates were mixed for 2 minutes at 1000 rpm and then allowed to incubate an additional 10 minutes before reading out luminescence on a Tecan Spark plate reader. […]

The mark [3] stands for this setting: RPMI-8866 cells with stable LOF mutation of the ITGB7 gene, read-out: Mean IC50 α4β1 KO^b.
Where [4] appears, read: RPMI-8866 cells with stable LOF mutation of the ITGB1 gene, read-out: Mean IC50 α4β7 KO^a.
[5] abbreviates: Protocol 5, RPMI-8866 cells with LOF mutation of ITGB7, VCAM, read-out: Mean IC50 α4β1 KO.
Setting [6] is: Protocol 4, RPMI-8866 cells with LOF mutation of ITGB1, MAdCAM, read-out: Mean IC50 α4β7 KO.

Like-named read-outs stand apart in the source and are kept apart here. Where only a bound is given, the exact number is not on record here.

α4β7 integrin, sequence (P13612 34-1032): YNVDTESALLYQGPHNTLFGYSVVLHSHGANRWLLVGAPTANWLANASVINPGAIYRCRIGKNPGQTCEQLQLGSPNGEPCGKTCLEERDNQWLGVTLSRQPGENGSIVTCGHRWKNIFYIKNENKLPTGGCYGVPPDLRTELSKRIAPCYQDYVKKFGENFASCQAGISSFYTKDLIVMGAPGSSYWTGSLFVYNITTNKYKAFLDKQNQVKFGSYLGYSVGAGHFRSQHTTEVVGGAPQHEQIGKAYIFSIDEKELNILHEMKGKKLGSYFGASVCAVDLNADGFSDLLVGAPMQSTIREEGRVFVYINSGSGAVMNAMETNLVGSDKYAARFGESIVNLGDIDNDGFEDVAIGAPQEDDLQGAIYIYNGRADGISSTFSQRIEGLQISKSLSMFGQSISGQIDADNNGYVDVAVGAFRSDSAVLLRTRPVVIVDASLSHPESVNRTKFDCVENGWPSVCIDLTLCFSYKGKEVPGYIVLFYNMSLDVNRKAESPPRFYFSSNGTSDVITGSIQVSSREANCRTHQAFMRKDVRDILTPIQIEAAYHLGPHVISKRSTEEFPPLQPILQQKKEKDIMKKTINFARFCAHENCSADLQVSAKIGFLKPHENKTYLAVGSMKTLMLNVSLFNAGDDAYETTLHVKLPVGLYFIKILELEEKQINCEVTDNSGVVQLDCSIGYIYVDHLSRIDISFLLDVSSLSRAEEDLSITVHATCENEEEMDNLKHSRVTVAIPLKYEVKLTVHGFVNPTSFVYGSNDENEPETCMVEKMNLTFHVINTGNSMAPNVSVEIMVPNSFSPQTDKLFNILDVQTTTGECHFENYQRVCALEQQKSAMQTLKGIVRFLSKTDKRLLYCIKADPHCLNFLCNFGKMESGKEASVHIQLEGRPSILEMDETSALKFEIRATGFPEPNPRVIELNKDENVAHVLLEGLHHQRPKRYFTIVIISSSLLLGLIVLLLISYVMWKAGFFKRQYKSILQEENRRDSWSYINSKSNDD
α4β7 integrin, sequence (P26010 20-798): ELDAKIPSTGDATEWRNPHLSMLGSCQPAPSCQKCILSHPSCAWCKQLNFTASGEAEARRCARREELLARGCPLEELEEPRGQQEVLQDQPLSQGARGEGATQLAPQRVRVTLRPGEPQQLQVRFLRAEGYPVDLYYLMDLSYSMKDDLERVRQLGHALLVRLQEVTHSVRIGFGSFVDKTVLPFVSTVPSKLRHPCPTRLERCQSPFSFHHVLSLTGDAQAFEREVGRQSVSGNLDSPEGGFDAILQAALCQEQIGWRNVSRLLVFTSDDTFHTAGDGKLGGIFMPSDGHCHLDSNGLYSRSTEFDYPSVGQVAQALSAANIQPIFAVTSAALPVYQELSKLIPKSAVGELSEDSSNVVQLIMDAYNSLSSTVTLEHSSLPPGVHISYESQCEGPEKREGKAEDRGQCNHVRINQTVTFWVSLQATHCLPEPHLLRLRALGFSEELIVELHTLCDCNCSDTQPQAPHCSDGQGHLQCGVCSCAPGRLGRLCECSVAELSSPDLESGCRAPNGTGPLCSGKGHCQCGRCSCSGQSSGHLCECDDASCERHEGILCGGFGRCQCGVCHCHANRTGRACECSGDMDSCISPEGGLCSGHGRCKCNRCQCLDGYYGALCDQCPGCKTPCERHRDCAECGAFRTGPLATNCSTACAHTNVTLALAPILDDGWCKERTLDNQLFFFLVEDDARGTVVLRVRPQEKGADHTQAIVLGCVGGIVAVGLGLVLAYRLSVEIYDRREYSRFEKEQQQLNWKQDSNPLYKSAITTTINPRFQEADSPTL
α4β1 integrin, sequence (P13612 34-1032): as the sequence (P13612 34-1032) above
α4β1 integrin, sequence (P05556 21-798): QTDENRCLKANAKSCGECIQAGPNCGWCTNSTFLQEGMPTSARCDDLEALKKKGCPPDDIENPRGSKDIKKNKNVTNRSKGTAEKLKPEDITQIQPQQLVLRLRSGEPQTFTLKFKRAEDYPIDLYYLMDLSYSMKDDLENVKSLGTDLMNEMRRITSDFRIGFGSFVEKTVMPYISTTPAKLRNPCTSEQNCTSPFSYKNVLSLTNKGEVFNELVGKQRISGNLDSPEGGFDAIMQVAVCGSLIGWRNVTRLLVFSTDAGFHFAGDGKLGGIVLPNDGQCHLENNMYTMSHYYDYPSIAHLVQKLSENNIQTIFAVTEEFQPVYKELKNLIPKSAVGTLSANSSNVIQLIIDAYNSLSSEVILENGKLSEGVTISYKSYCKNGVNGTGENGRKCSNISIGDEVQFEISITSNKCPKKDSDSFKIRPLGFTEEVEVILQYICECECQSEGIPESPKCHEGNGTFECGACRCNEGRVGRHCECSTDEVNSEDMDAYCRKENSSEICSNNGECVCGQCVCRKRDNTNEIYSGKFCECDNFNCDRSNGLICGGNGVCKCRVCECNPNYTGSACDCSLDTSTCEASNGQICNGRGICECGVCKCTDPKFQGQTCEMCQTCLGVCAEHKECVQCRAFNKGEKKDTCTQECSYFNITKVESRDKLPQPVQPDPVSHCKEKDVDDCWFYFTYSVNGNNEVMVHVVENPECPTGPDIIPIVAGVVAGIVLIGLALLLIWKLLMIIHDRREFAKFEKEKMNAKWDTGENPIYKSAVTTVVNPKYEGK

A word on the IC50: it is the concentration that inhibits the measured activity by half. On to `COc1ccc(CN2C(C)CCC2C)c(OC)c1-c1cccc2c(C[C@H](NC(=O)c3c(C)cccc3F)C(=O)O)cccc12` (stereo partly drawn) [Compound 635], for which the IC50 in test [1] (setting [3]) is more than 1000 nM; in test [2] (setting [4]), 10 to 100 nM. `COc1cc2c(c(OC)c1-c1cccc3c(C[C@H](NC(=O)c4c(C)cccc4F)C(=O)O)cccc13)CN(C)CC2` [Compound 473]: the IC50 is 100 to 1000 nM in test [1] (setting [3]) and less than 10 nM in test [2] (setting [4]). As for `COc1ccc2c(c1-c1cccc3c(C[C@H](NC(=O)c4c(C)cccc4F)C(=O)O)cccc13)CCN(CC(F)(F)F)C2` [Compound 997], the 50% inhibitory concentration (IC50) in test [1] (setting [5]) was more than 1000 nM; in test [2] (setting [6]), 10 to 100 nM. `Cn1c(=O)c(-c2cccc3c(C[C@H](NC(=O)C4(C(F)(F)F)CCN([C@H]5CCC(F)(F)C5)CC4)C(=O)O)cccc23)c(C(F)(F)F)c2ccccc21` (single isomer, unassigned) [Compound 495]: the IC50 was more than 1000 nM in test [1] (setting [3]) and 10 to 100 nM in test [2] (setting [4]). Regarding `COC1CN(Cc2cnc(-c3cccc4c(C[C@H](NC(=O)C5(C(F)(F)F)CCN(CC(F)(F)F)CC5)C(=O)O)cccc34)c3ccccc23)C1` [Compound 866], the IC50 in test [1] (setting [5]) is more than 1000 nM; in test [2] (setting [6]), less than 10 nM. As for `Cn1c(=O)c(-c2cccc3c(C[C@H](NC(=O)C4(C(F)(F)F)CCN(CCC(F)(F)F)CC4)C(=O)O)cccc23)c(C(F)(F)F)c2ccccc21` [Compound 536], the concentration for half-maximal inhibition (IC50) in test [1] (setting [3]) is more than 1000 nM; in test [2] (setting [4]), 10 to 100 nM. Take `COc1cc2c(c(C(F)(F)F)c1-c1cccc3c(C[C@H](NC(=O)C4(C(F)(F)F)CCN(CC(F)(F)F)CC4)C(=O)O)cccc13)CN(C)CC2` [Compound 736]: the IC50 in test [2] (setting [6]) is less than 10 nM. On the same count and under the same terms, for `CC1(C)CCN(Cc2cnc(-c3cccc4c(C[C@H](NC(=O)C5(C(F)(F)F)CCN(C6COC6)CC5)C(=O)O)cccc34)c3ccccc23)CC1` [Compound 686] the value was less than 10 nM; for `COc1ccc(CN2CCC(C(F)(F)F)CC2)cc1-c1cccc2c(C[C@H](NC(=O)C3(C(F)(F)F)CCN(CC(F)F)CC3)C(=O)O)cccc12` [Compound 938], less than 10 nM; for `O=C(O)[C@H](Cc1cccc2c(-n3cccc(C(F)(F)F)c3=O)cccc12)NC(=O)C1(C(F)(F)F)CCN(CC(F)(F)F)CC1` [Compound 1055], 100 to 1000 nM. On the same count and under the same terms, for `Cc1cc(C2CCCN(C)C2)cnc1-c1cccc2c(C[C@H](NC(=O)C3(C(F)(F)F)CCN(CC(F)(F)F)CC3)C(=O)O)cccc12` (stereo partly drawn) [Compound 760] the value was less than 10 nM; for `COc1ccc(CN2CCC(C)(C)CC2)cc1-c1cccc2c(C[C@H](NC(=O)C3(C(F)(F)F)CCN(CC(F)(F)F)CC3)C(=O)O)cccc12` [Compound 941], less than 10 nM. With `Cn1c(=O)c(-c2cccc3c(C[C@H](NC(=O)C45CC(NCC(F)(F)F)(C4)C5)C(=O)O)cccc23)c(C(F)(F)F)c2ccccc21` [Compound 446], the IC50 in test [2] (setting [4]) was more than 1000 nM. `Cn1c(=O)c(-c2cccc3c(C[C@H](NC(=O)C4(C)C5CC4CN(CC(F)(F)F)C5)C(=O)O)cccc23)c(C(F)(F)F)c2ccccc21` (stereo partly drawn) [Compound 1048]: the IC50 in test [2] (setting [6]) lay within 100 to 1000 nM.

Turning to `Cc1cccc(F)c1C(=O)N[C@@H](Cc1cccc2c(-c3cc(CN4CCCCC4)ccc3C(F)(F)F)cccc12)C(=O)O` [Compound 689], in test [2] (setting [6]), the half-maximal inhibitory concentration (IC50) lay within 10 to 100 nM. As to `COc1ccc(CN2CCCC(F)C2)c(OC)c1-c1cccc2c(C[C@H](NC(=O)c3c(C)cc(C45CCOCC4C5)cc3F)C(=O)O)cccc12` (stereo partly drawn) [Compound 663], the IC50 in test [2] (setting [4]) is less than 10 nM. On to `COc1cc(CN2CCC(C(F)(F)F)CC2)cnc1-c1cccc2c(C[C@H](NC(=O)C3(C(F)(F)F)CCN(CC(F)(F)F)CC3)C(=O)O)cccc12` [Compound 889], for which the concentration for half-maximal inhibition (IC50) in test [2] (setting [6]) was less than 10 nM. Same read-out and setting: as for `O=C(O)[C@H](Cc1cccc2c(-c3nccc4ccc(CCCN5CCC6(CC5)CC6)cc34)cccc12)NC(=O)C1(C(F)(F)F)CCN(CC(F)F)CC1` [Compound 774], the figure is less than 10 nM. Consider `O=C(N[C@@H](Cc1cccc2c(-c3cccc4ccncc34)cccc12)C(=O)O)c1c(F)cccc1F` [Compound 295], for which the half-maximal inhibitory concentration (IC50) in test [2] (setting [4]) was more than 1000 nM.

Turning to `CC(C)CC1CC(C)(C(=O)N[C@@H](Cc2cccc3c(-c4c(C(F)(F)F)c5ccccc5n(C)c4=O)cccc23)C(=O)O)CCN1CC(F)(F)F` (stereo partly drawn) [Compound 529], the IC50 in test [2] (setting [4]) is more than 1000 nM. On to `COC1CN(Cc2cnc(-c3cccc4c(C[C@H](NC(=O)C5(C(F)(F)F)CCN(CC(F)F)CC5)C(=O)O)cccc34)c3ccccc23)C1` [Compound 913], for which, in test [2] (setting [6]), the IC50 was less than 10 nM. Take `COc1ccc(CN2CC3CCC(C2)O3)c(OC)c1-c1cccc2c(C[C@H](NC(=O)c3c(C)cccc3F)C(=O)O)cccc12` [Compound 568]: the concentration for half-maximal inhibition (IC50) in test [2] (setting [4]) lay within 10 to 100 nM.

As for `CC1CC(C)(C(=O)N[C@@H](Cc2cccc3c(-c4c(C(F)(F)F)c5ccccc5n(C)c4=O)cccc23)C(=O)O)CCN1CC(F)(F)F` (stereo partly drawn) [Compound 528], the IC50 in test [2] (setting [4]) was more than 1000 nM. In the case of `O=C(O)[C@H](Cc1cccc2c(-c3ncc(CN4CC(F)C4)c4ccccc34)cccc12)NC(=O)C1(C(F)(F)F)CCN(CC(F)F)CC1` [Compound 877], the IC50 in test [2] (setting [6]) was less than 10 nM. For the compound `O=C(O)[C@H](Cc1cccc2c(-c3ncc(CN4CCCCC4)cc3C(F)(F)F)cccc12)NC(=O)C1(C(F)(F)F)CCN(CC(F)F)CC1` [Compound 897], the IC50 in test [2] (setting [6]) is less than 10 nM. Same read-out and setting: as for `O=C(O)[C@H](Cc1cccc2c(-c3nccc4ccc(CCCN5CCC6(CC5)CC6)cc34)cccc12)NC(=O)C1(C(F)(F)F)CCN(CC(F)(F)F)CC1` [Compound 743], the figure is less than 10 nM. Still for that read-out and setting: as for `COc1c(CN2CCCCC2)ccc(C(F)(F)F)c1-c1cccc2c(C[C@H](NC(=O)c3c(C)cccc3F)C(=O)O)cccc12` [Compound 1022], the figure is 10 to 100 nM.

For `O=C(N[C@@H](Cc1cccc2c(-c3ncc(CN4CCCCC4)c4ccccc34)cccc12)C(=O)O)c1c(F)cccc1F` [Compound 678], the concentration for half-maximal inhibition (IC50) in test [2] (setting [4]) fell in the range of 10 to 100 nM. `O=C(O)[C@H](Cc1cccc2c(-c3ncc(CN4CCC(F)(F)CC4)c4ccccc34)cccc12)NC(=O)C1(C(F)(F)F)CCN(CC(F)F)CC1` [Compound 906]: in test [2] (setting [6]), the IC50 was less than 10 nM. On the same count and under the same terms, as for `COc1ccc(CN2CCCCC2)cc1-c1cccc2c(C[C@H](NC(=O)C3(C(F)(F)F)CCN(CC(F)F)CC3)C(=O)O)cccc12` [Compound 937], the figure is less than 10 nM.

(Values after patent US20250313535A1, “ALPHA 4 BETA 7 INTEGRIN MODULATORS AND USES THEREOF” (DICE MOLECULES SV, INC., priority 2022, published 2025).)
